“Also recorded” adds a separate entry of the source.
Legend:
Format in all cases: cell-based
DCIS.com cells [1] = experiment: Cell cycle arrest in crowded DCIS.com cells; conditions: crowded DCIS cells treated with TSA vs vehicle
Excerpt: FIGS. 11A-11D depict images and graphs illustrating independent possibilities for crowding-mediated increased invasiveness. […] FIGS. 11C-11D show images of DCIS.com cell invasiveness after treatment with vehicle or TSA (FIG. 11C) and the percentage of invasive cells per treatment group (FIG. 11D).
(§1) Also assessed were two independent possibilities for crowding-mediated increased invasiveness: YAP-association and cell cycle arrest (high-density cells are subject to G1 arrest).

DCIS.com cells [2] = experiment: 2D hydrogel matrix-based invasion assay; conditions: crowded DCIS.com cells treated with TSA vs vehicle
Excerpt: FIGS. 6A-6G depict images illustrating 2D hydrogel-based invasion assays. […] Percent (%) invading cells was calculating by dividing this value by the total number of spots. […] Scale bar=100 μm (FIGS. 6B-6E) and 10 μm (FIGS. 6F-6G).
To compare the invasive potential of live cells between different treatment groups, exemplary methods herein established a hydrogel matrix-based invasion assay (FIG. 6A). This assay was used to quantify the invasive cell fraction as a percentage of the total, based on fluorescence imaging results (FIGS. 6B-6E). Since cell stiffness is modulated by the stiffness of the surroundings [the values for normal breast versus DCIS cells are known to be ˜0.1 versus ˜10 kPa], the hydrogel matrix could be stiffness-controlled within the range specified above, as confirmed by nanoindenter measurements.
as §1

ATP1a1 = target: T1, ATP1a1 (Homo sapiens, UniProt P05023); experiment: Immunofluorescence imaging of plasma membrane ATP1A1 localization in overconfluent DCIS.com cells; conditions: OC DCIS.com cells; 20 nM lithium bicarbonate or 100 nM ouabain, 24 hours; IF images
T1 construct: endogenous in cells; host or cells: MCF10DCIS.com (DCIS.com) cells, overconfluent
Excerpt: FIGS. 4A-4B depict images illustrating ion channel enrichment in DCIS plasma membranes. […] Transferrin receptor (TfR) distribution was insensitive to cell crowding. IF images. […] Scale bar=10 μm.
Crowding-induced cell volume changes typically occur under isotonic conditions and are accompanied by the efflux of intracellular osmolytes through ion channels. Methods herein assessed if ion channel activities were altered when cells are crowded.

Row | Compound | cell cycle arrest (DCIS.com cells [1]) | invasiveness of DCIS.com cells (percentage of invasive cells) (DCIS.com cells [2]) | PM ATP1a1 localization / PM abundance of ion channels (ATP1a1)
1 | CC(/C=C/C(=O)NO)=C\[C@@H](C)C(=O)c1ccc(N(C)C)cc1 [Trichostatin A] | reversed the cell cycle arrest | did not decrease the invasiveness | –
2 | O=C([O-])O.[Li+] [lithium bicarbonate] | – | – | the perturbation was less obvious
3 | C[C@@H]1O[C@@H](O[C@H]2C[C@@H](O)[C@]3(CO)[C@H]4[C@H](O)C[C@]5(C)[C@@H](C6=CC(=O)OC6)CC[C@]5(O)[C@@H]4CC[C@]3(O)C2)[C@H](O)[C@H](O)[C@H]1O [ouabain] | – | – | the PM abundance of ion channels was perturbed; also recorded: perturbed PM ATP1a1 localization

Source: patent US12013398B2, “Compositions and methods for treatment of invasive cancers” (The George Washington University, priority 2021, dated 2024)
